Patent publication US8974827B2, “Nanoparticles comprising a non-ionizable cellulosic polymer and an amphiphilic non-ionizable block copolymer” (Bend Research, Inc., priority 2007, dated 2015)
Values after ≈ are worked out from the molar mass of the structure shown.

Assays:
[1] = Solubility of drug in water; type: physicochemical
Protocol: The utility of the invention increases as the water solubility of the drug decreases. […] The Tg of non-crystalline Drug 1 was determined by DSC analysis to be 55° C., while the Tm of crystalline Drug 1 was 170° C.

[2] = for Observations: pH 6.5
Protocol: An appropriate PBS solution is an aqueous solution comprising 20 mM sodium phosphate (Na2HPO4), 47 mM potassium phosphate (KH2PO4), 87 mM NaCl, and 0.2 mM KCl, adjusted to pH 6.5 with NaOH. A test to determine whether the cellulosic polymer is insoluble may be performed as follows. The cellulosic polymer is initially present in bulk powder form with average particle sizes of greater than about 1 micron. The polymer alone is administered at a concentration of 0.2 mg/mL to the PBS solution and stirred for approximately 1 hour at room temperature. Next, a nylon 0.45 μm filter is weighed, and the solution is filtered. The filter is dried overnight at 40° C., and weighed the following morning.
First, 0.2 mg/mL of the polymer was added to a PBS solution consisting of 20 mM Na2HPO4, 47 mM KH2PO4, 87 mM NaCl, and 0.2 mM KCl, adjusted to pH 6.5 with NaOH. The polymer was stirred in the PBS solution for approximately 1 hour at room temperature. Next, the polymer solution was filtered through a nylon 0.45 μm filter that was weighed dry prior to filtration. The filter was dried overnight at 40° C., and weighed the following morning. The amount of soluble polymer was calculated from the amount of polymer added to form the polymer solution minus the amount of polymer remaining on the filter.

Log P of drug = type: physicochemical; conditions: octanol/water
Source text: The first property of hydrophobic drugs is that they are extremely hydrophobic. Log P, defined as the base 10 logarithm of the ratio of the drug solubility in octanol to the drug solubility in water, is a widely accepted measure of hydrophobicity. By “extremely hydrophobic” is meant that the Log P value of the drug is at least 4.0, preferably at least 4.5, and most preferably at least 5.0. Log P may be measured experimentally or calculated using methods known in the art. When using a calculated value for Log P, the highest value calculated using any generally accepted method for calculating Log P is used. Calculated Log P values are often referred to by the calculation method, such as Clog P, Alog P, and Mlog P. The Log P may also be estimated using fragmentation methods, such as Crippen's fragmentation method (27 J. Chem. Inf. Comput. Sci. 21 (1987)); Viswanadhan's fragmentation method (29 J. Chem. Inf. Comput. Sci. 163 (1989)); or Broto's fragmentation method (19 Eur. J. Med. Chem.-Chim. Theor. 71 (1984).

[3] = Free drug analysis by centrifuge filtration (30,000-dalton cutoff) and HPLC; type: physicochemical; conditions: 30,000-dalton cutoff centrifuge filter, HPLC
Protocol: The nanoparticle suspension was centrifuged for 3 minutes at 13,000 rpm using a 30,000-dalton molecular-weight cutoff centrifuge tube filter, and 50 μL of the supernatant was added to 250 μL acetonitrile. The sample was assayed by HPLC.

[4] = Solubility in model fasted duodenal (MFD) solution; type: physicochemical; conditions: fassgf or other biorelevant, PBS containing 7.3 mM sodium taurocholic acid and 1.4 mM POPC

solubility [1]	Amount Soluble at pH 6.5 [2]	Observations [2]	Compound	further results
< 1 µg/mL	–	–	CC[C@@H]1C[C@H](N(Cc2cc(C(F)(F)F)cc(C(F)(F)F)c2)C(C)=O)c2cc(C(F)(F)F)ccc2N1C(=O)OC(C)C [Drug 2, [2R,4S] 4-[acetyl-(3,5-bis-trifluoromethyl-benzyl)-amino]-2-ethyl-6-trifluoromethyl-3,4-dihydro-2H-quinoline-1-carboxylic acid isopropyl ester]	–
–	0.02 mg/mL	Fine particle suspension	poly(DL-lactide-co-glycolide 50:50) [PLGA]	–
~10 µg/mL (≈ 31.8 µM)	–	–	Cc1onc(-c2ccccc2)c1-c1ccc(S(N)(=O)=O)cc1 [Drug 1, 4-(5-methyl-3-phenyl-4-isoxazolyl)benzenesulfonamide]	logP (Log P of drug): ~3; Free Drug [3]: 11 µg/mL
–	–	Stabilizer dissolved	Polyethylene glycol 8000 [PEG 8000]	Soluble at pH 6.5 [2]: 0.2 mg/mL
–	<0.001 mg/mL	Fine particle suspension	ethylcellulose	–
–	–	–	Cc1ccc(-c2cc(C(F)(F)F)nn2-c2ccc(S(N)(=O)=O)cc2)cc1 [Drug 3, celecoxib]	solubility [4]: ~40 µg/mL (≈ 105 µM)
